Reference: DBAASP
≈ marks a conversion by molar mass, not a printed value.

Columns and labels:
Experiment in all cases: ≥ marks a high value that may be exact or a test limit, other limits are often not marked, values filed in µg/mL are converted to µM
[1] = test system: Escherichia coli PCM 2057
[2] = test system: Psychrobacter faecalis X29
[3] = test system: Staphylococcus aureus ATCC 2592
[4] = test system: Rhodococcus rhodochrous X15
[5] = test system: Bacillus licheniformis X39
[6] = test system: Staphylococcus aureus NCTC 8325
[7] = test system: Pseudomonas aeruginosa ATCC 27853
[8] = test system: Klebsiella pneumoniae KK3 9904
[9] = test system: Enterobacter cloacae NHTCC 53001
[10] = test system: Candida albicans ATCC 90028
[11] = test system: Escherichia coli ATCC 25922
[12] = test system: Escherichia coli IFO 3301
[13] = test system: Bacillus subtilis IFO 3336
[14] = test system: Staphylococcus aureus 930918-3
[15] = test system: Staphylococcus aureus ATCC 33591
[16] = test system: Pseudomonas aeruginosa MR3007
[17] = test system: Vibrio parahaemolyticus Vp+1
[18] = test system: Vibrio anguillarum NCIMB 829
[19] = test system: Staphylococcus aureus IAM 1011
[20] = test system: Bacillus subtilis IAM 1026
[21] = test system: Aeromonas salmonicida NCIMB 1102
[22] = test system: Shewanella putrefaciens IAM 1509
Salmonella typhimurium = test system: Salmonella typhimurium
[23] = test system: Escherichia coli JCM 1649
[24] = test system: Photobacterium damselae subsp. piscicida Sp 9587
[25] = test system: Streptococcus mitis ATCC 903
Enterococcus faecalis = test system: Enterococcus faecalis
[26] = test system: Streptococcus mutans UA159
[27] = test system: Streptococcus gordonii Challis DL1
[28] = test system: Streptococcus sobrinus ATCC 33478
Staphylococcus aureus = test system: Staphylococcus aureus
[29] = test system: Streptococcus sanguinis NY101
[30] = test system: Pseudomonas aeruginosa PAK
Escherichia coli W3110 = test system: Escherichia coli W3110

`CC[C@H](C)[C@H](NC(=O)[C@H](CC(N)=O)NC(=O)[C@H](C)NC(=O)[C@H](C)N)C(=O)N1CCC[C@H]1C(=O)N[C@@H](Cc1ccccc1)C(=O)N[C@@H](CCCCN)C(=O)N[C@H](C(=O)N[C@@H](Cc1cnc[nH]1)C(=O)N[C@@H](Cc1ccccc1)C(=O)N[C@@H](CCCN=C(N)N)C(=O)N[C@H]1CSSC[C@@H](C(=O)O)NC(=O)[C@H](Cc2ccccc2)NC(=O)[C@H](C)NC(=O)[C@H](C)NC(=O)[C@H](CCCCN)NC1=O)C(C)C` [AANIPFKVHFRCKAAFC] was tested, and the MIC [1] was no less than 520 µM.

`CC[C@H](C)[C@@H]1NC(=O)[C@H](CCCCN)NC(=O)[C@@H](NC(=O)[C@@H](NC(=O)[C@@H](NC(=O)[C@H](CCC(N)=O)NC(=O)[C@@H]2CCCN2C(=O)[C@H](CC(C)C)NC(=O)[C@H](Cc2ccccc2)NC(=O)[C@H](CC(N)=O)NC(=O)[C@H](C)NC(=O)[C@@H](NC(=O)[C@@H](NC(=O)CNC(=O)[C@H](C)NC(=O)[C@H](CC(C)C)NC(=O)[C@H](CC(C)C)NC(=O)[C@@H]2CCCN2C(=O)[C@H](CC(C)C)NC(=O)[C@@H](N)Cc2ccccc2)C(C)C)C(C)C)[C@@H](C)CC)[C@@H](C)CC)CSSC[C@@H](C(=O)O)NC(=O)[C@H](CCCCN)NC(=O)[C@H](CCCN=C(N)N)NC(=O)[C@H](C)NC1=O` [FLPLLAGVVANFLPQIICKIARKC] showed an MIC [2] of 4.76 µM (≈ 12.5 µg/mL), an MIC [3] of 2.4 µM (≈ 6.3 µg/mL) and an MIC [4] of 1.18 µM (≈ 3.1 µg/mL). For the same compound, the MIC [5] was 9.51 µM (≈ 25 µg/mL).

Work on `CC[C@H](C)[C@H](NC(=O)[C@H](Cc1cnc[nH]1)NC(=O)[C@H](CCCCN)NC(=O)CNC(=O)[C@H](C)NC(=O)[C@@H](NC(=O)[C@H](CCCCN)NC(=O)[C@H](CC(C)C)NC(=O)[C@@H](NC(=O)CNC(=O)[C@H](CCCN=C(N)N)NC(=O)[C@H](Cc1ccccc1)NC(=O)[C@H](CC(C)C)NC(=O)[C@H](CO)NC(=O)[C@H](CCSC)NC(=O)[C@H](CC(C)C)NC(=O)CN)C(C)C)[C@@H](C)O)C(=O)N[C@@H](Cc1ccccc1)C(=O)N[C@@H](CCCCN)C(=O)N[C@@H](CC(N)=O)C(=O)N[C@H](C(=O)NCC(=O)NCC(=O)N[C@@H](CO)C(=O)N[C@@H](CC(C)C)C(=O)N[C@@H](CC(C)C)C(=O)N[C@@H](CC(=O)O)C(=O)N[C@@H](CCC(N)=O)C(=O)N[C@@H](C)C(=O)N[C@@H](CCCCN)C(=O)N[C@H]1CSSC[C@@H](C(=O)O)NC(=O)[C@H](CCC(=O)O)NC(=O)CNC(=O)[C@H]([C@@H](C)O)NC(=O)[C@H]([C@@H](C)CC)NC(=O)[C@H](CCCCN)NC1=O)C(C)C` [GLMSLFRGVLKTAGKHIFKNVGGSLLDQAKCKITGEC] yielded an MIC [6] of 25 µM (≈ 98 µg/mL), an MIC [7] of 3 µM (≈ 11.8 µg/mL) and an MIC [8] of 6 µM (≈ 23.5 µg/mL). The MIC [9] was 6 µM (≈ 23.5 µg/mL), the MIC [10] was no less than 100 µM and the MIC [11] was 3 µM (≈ 11.8 µg/mL).

Compound `NCCCC[C@H](NC(=O)[C@H](Cc1cnc[nH]1)NC(=O)[C@H](CCCCN)NC(=O)[C@H](Cc1cnc[nH]1)NC(=O)[C@H](CCCCN)NC(=O)[C@H](Cc1cnc[nH]1)NC(=O)[C@H](CCCCN)NC(=O)[C@H](Cc1cnc[nH]1)NC(=O)[C@@H](N)CCCCN)C(=O)N[C@@H](Cc1cnc[nH]1)C(=O)O` [KHKHKHKHKH] has an MIC [12] of 7.44 µM (≈ 10 µg/mL) and an MIC [13] of 7.44 µM (≈ 10 µg/mL).

`CC[C@H](C)[C@H](NC(=O)[C@H](CCCCN)NC(=O)[C@H](CCC(N)=O)NC(=O)CNC(=O)[C@@H](NC(=O)[C@H](CCCCN)NC(=O)[C@H](CCCCN)NC(=O)[C@H](CC(C)C)NC(=O)[C@H](CCCCN)NC(=O)[C@H](CCC(=O)O)NC(=O)[C@H](CCCCN)NC(=O)[C@@H](NC(=O)[C@@H](N)CCCCN)[C@@H](C)CC)[C@@H](C)CC)C(=O)O` [KIKEKLKKIGQKI] gave an MIC [14] of no less than 160 µM, an MIC [15] of no less than 160 µM and an MIC [16] of no less than 160 µM.

Compound `CC[C@H](C)[C@H](NC(=O)[C@H](C)NC(=O)CNC(=O)[C@@H](NC(=O)[C@@H](NC(=O)[C@H](CCC(N)=O)NC(=O)[C@@H]1CCCN1C(=O)[C@@H](NC(=O)[C@H](C)NC(=O)CNC(=O)[C@@H](NC(=O)[C@@H](NC(=O)[C@H](Cc1cnc[nH]1)NC(=O)[C@@H]1CCCN1C(=O)[C@H](CC(C)C)NC(=O)[C@H](CC(C)C)NC(=O)[C@@H]1CCCN1C(=O)[C@@H](NC(=O)[C@H](CC(C)C)NC(=O)[C@H](Cc1ccccc1)NC(=O)CNC(=O)[C@H](Cc1ccccc1)NC(=O)[C@@H](N)CC(C)C)[C@@H](C)CC)[C@@H](C)CC)[C@@H](C)CC)[C@@H](C)CC)C(C)C)[C@@H](C)CC)C(=O)N[C@@H](CCCN=C(N)N)C(=O)O` [LFGFLIPLLPHIIGAIPQVIGAIR] has an MIC [17] of 9.73 µM (≈ 25 µg/mL), an MIC [18] of 9.73 µM (≈ 25 µg/mL) and an MIC [19] of 2.43 µM (≈ 6.25 µg/mL). The MIC [20] was 4.87 µM (≈ 12.5 µg/mL), the MIC [21] was 19.5 µM (≈ 50 µg/mL) and the MIC [22] was 2.43 µM (≈ 6.25 µg/mL). It also gave an MIC (Salmonella typhimurium) of 19.5 µM (≈ 50 µg/mL), an MIC [23] of 19.5 µM (≈ 50 µg/mL) and an MIC [24] of 2.43 µM (≈ 6.25 µg/mL).

Work on `NC(N)=NCCC[C@H](NC(=O)CNC(=O)[C@H](CCCN=C(N)N)NC(=O)CNC(=O)[C@H](CCCN=C(N)N)NC(=O)CNC(=O)[C@H](CCCN=C(N)N)NC(=O)CNC(=O)[C@@H](N)CCCN=C(N)N)C(=O)NCC(=O)O` [RGRGRGRGRG] yielded an MIC [12] of no less than 92.2 µM and an MIC [13] of no less than 92.2 µM.

For `C[C@@H](O)[C@H](NC(=O)[C@H](Cc1c[nH]c2ccccc12)NC(=O)[C@H](Cc1c[nH]c2ccccc12)NC(=O)[C@H](Cc1ccc(O)cc1)NC(=O)[C@H](CO)NC(=O)[C@H](Cc1c[nH]c2ccccc12)NC(=O)[C@@H](N)Cc1c[nH]c2ccccc12)C(=O)N[C@@H](CCC(N)=O)C(=O)N[C@@H](Cc1c[nH]c2ccccc12)C(N)=O` [WWSYWWTQW], the MIC [25] was no less than 87.5 µM, the MIC (Enterococcus faecalis) was no less than 87.5 µM and the MIC [26] was no less than 87.5 µM. It also gave an MIC [27] of no less than 87.5 µM, an MIC [28] of no less than 87.5 µM and an MIC (Staphylococcus aureus) greater than 87.5 µM. It also gave an MIC [29] of no less than 87.5 µM, an MIC [30] of no less than 87.5 µM and an MIC (Escherichia coli W3110) of no less than 87.5 µM.
